Measurements: patent US20230094922A1, “METHODS OF THERAPEUTIC PROGNOSTICATION” (GENETIKAPLUS LTD., priority 2020, published 2023)

Tested on: iPSC-derived cortical neurons
Assay type: cell-based
Details: responders vs non-responders after 10 μM Bupropion

CC(NC(C)(C)C)C(=O)c1cccc(Cl)c1 (stereo not drawn) [Bupropion, 3-Chloro-N-tert-butyl-β-keto-α-methylphenethylamin]
logFC TP53INP2 (NS): −1.177
logFC TPPP (NS): −1.04
logFC TRIB2 (NS): −0.7077
logFC TRIM9 (NS): −1.352
logFC TSPAN7 (NS): −1.098
logFC TSPYL5 (NS): −1.843
logFC TTBK1 (NS): −1.374
logFC TUBB2B (NS): −0.7583
logFC TVP23A (NS): −1.064
logFC VPS26B (NS): −0.6245
logFC VSTM2A (NS): −1.971
logFC VWA5B2 (NS): −1.111
logFC VXN (NS): −1.527
logFC WDR47 (NS): −0.8343
logFC WDR82 (NS): −0.4862
logFC WNK2 (NS): −0.7608
logFC WSB2 (NS): −0.8644
logFC ZC3HAV1L (NS): −2.186
logFC ZDHHC22 (NS): −1.455
logFC ZFP3 (NS): −1.933
logFC ZNF385A (NS): −0.8795
logFC ZNF439 (NS): −2.201
logFC ABCC6 (p<0.01): −0.5461
logFC ADAMTS4 (p<0.01): −0.723
logFC ADAMTS8 (p<0.01): −1.658
logFC ADAMTS15 (p<0.01): −1.743
logFC ADAMTSL1 (p<0.01): −1.46
logFC ADAMTSL2 (p<0.01): −1.833
logFC ALDOC (p<0.01): −0.6635
logFC APOL2 (p<0.01): −0.6452
logFC AQP6 (p<0.01): −1.137
logFC ARHGAP23 (p<0.01): −0.5891
logFC ARHGEF28 (p<0.01): −0.916
logFC ARL17B (p<0.01): −1.232
logFC ASPN (p<0.01): −3.695
logFC BDKRB2 (p<0.01): −1.475
logFC C1R (p<0.01): −1.32
logFC C5orf63 (p<0.01): −1.211
logFC CABP7 (p<0.01): −1.06
logFC CACNA1H (p<0.01): −0.5137
logFC CCDC183 (p<0.01): −0.5281
logFC CCDC187 (p<0.01): −1.023
logFC CCER2 (p<0.01): −0.8431
logFC CD151 (p<0.01): −0.4377
logFC CDKN1C (p<0.01): −0.6211
logFC CEMIP (p<0.01): −2.321
logFC CHST8 (p<0.01): −1.474
logFC COL1A1 (p<0.01): −1.88
logFC COL6A1 (p<0.01): −0.5639
logFC COL8A2 (p<0.01): −2.755
logFC COL15A1 (p<0.01): −2.224
logFC CPA4 (p<0.01): −2.791
logFC CPNE5 (p<0.01): −0.937
logFC CXCL2 (p<0.01): −1.783
logFC CXCL6 (p<0.01): −2.412
logFC CXCL8 (p<0.01): −3.086
logFC DHRS3 (p<0.01): −1.126
logFC DRGX (p<0.01): −4.337
logFC DYRK1B (p<0.01): −0.3984
logFC EFEMP2 (p<0.01): −0.7929
logFC EGFLAM (p<0.01): −1.798
logFC ELN (p<0.01): −2.048
logFC EPHB3 (p<0.01): −0.4956
logFC EYA2 (p<0.01): −0.955
logFC FAM20C (p<0.01): −0.6923
logFC FBLN5 (p<0.01): −1.918
logFC FMOD (p<0.01): −2.269
logFC FNDC5 (p<0.01): −0.7008
logFC FRMPD1 (p<0.01): −2.303
logFC GAA (p<0.01): −0.4856
logFC GALNT14 (p<0.01): −1.152
logFC GLIS2 (p<0.01): −0.5025
logFC GPBAR1 (p<0.01): −0.9131
logFC HCN1 (p<0.01): −2.181
logFC HES6 (p<0.01): −1.04
logFC HMX1 (p<0.01): −1.478
logFC HOXB5 (p<0.01): −2.739
logFC HS3ST2 (p<0.01): −1.228
logFC HS6ST1 (p<0.01): −0.6264
logFC IAH1 (p<0.01): −0.789
logFC IGFBP5 (p<0.01): −0.9814
logFC IL17RC (p<0.01): −0.5333
logFC INHBB (p<0.01): −1.748
logFC INMT (p<0.01): −1.061
logFC IRF2BPL (p<0.01): −0.3835
logFC ISLR (p<0.01): −1.646
logFC ITPRIP (p<0.01): −0.5931
logFC JOSD2 (p<0.01): −0.7377
logFC KCNA1 (p<0.01): −3.416
logFC KCNJ5 (p<0.01): −1.028
logFC KDM4B (p<0.01): −0.331
logFC KHDC1 (p<0.01): −0.7724
logFC KIF26A (p<0.01): −0.5135
logFC KLHL35 (p<0.01): −1.144
logFC LGALS3BP (p<0.01): −0.9602
logFC LOXL1 (p<0.01): −0.6236
logFC LRFN5 (p<0.01): −0.6816
logFC LURAP1L (p<0.01): −1.086
logFC LYPD1 (p<0.01): −0.7703
logFC MAB21L2 (p<0.01): −0.9329
logFC MAFB (p<0.01): −0.573
logFC MCC (p<0.01): −0.8548
logFC MGP (p<0.01): −2.67
logFC MKX (p<0.01): −1.878
logFC MX2 (p<0.01): −1.618
logFC NDUFA4L2 (p<0.01): −0.8379
logFC NFIX (p<0.01): −2.446
logFC NNMT (p<0.01): −2.326
logFC NPR2 (p<0.01): −0.5942
logFC NTNG2 (p<0.01): −1.161
logFC OGFR (p<0.01): −0.318
logFC OLFML2B (p<0.01): −1.03
logFC OPRK1 (p<0.01): −0.939
logFC OPRM1 (p<0.01): −1.985
logFC OPTN (p<0.01): −0.44
logFC OTOG (p<0.01): −1.855
logFC P4HA3 (p<0.01): −2.239
logFC PADI2 (p<0.01): −1.485
logFC PALM (p<0.01): −0.581
logFC PARP10 (p<0.01): −1.041
logFC PENK (p<0.01): −1.977
logFC PHOX2B (p<0.01): −2.192
logFC PIEZO2 (p<0.01): −2.464
logFC PIRT (p<0.01): −3.199
logFC PLAC9 (p<0.01): −1.585
